Assay results as given in US20100047233A1, “TREATMENT OF POST-MENOPAUSAL AND POST-HYSTERECTOMY MEDIATED COGNITIVE DISORDERS” (priority 2006, published 2010).
Entries after “also recorded” stand apart in the source; their conditions may differ. Non-standard residues stand in square brackets, D forms with d. Residues, ends and D or L forms follow the SMILES beside them. dPhe(4-Cl) = N[C@H](Cc1ccc(Cl)cc1)C(=O)O; d2Nal = N[C@H](Cc1ccc2ccccc2c1)C(=O)O; dCit = NC(=O)NCCC[C@@H](N)C(=O)O; d3Pal = N[C@H](Cc1cccnc1)C(=O)O

What was measured:
[1] = test system: C57/B6 female mice; assay: Y-maze performance in ovariectomized mice; type: in vivo; conditions: OVX mice; for Y-maze performance: leuprolide acetate 7.5 mg/kg for 3 months vs saline, improvement specific to placebo replaced group
Protocol: To measure spontaneous alternation behavior and exploratory activity, a hippocampal-associated task, we used a Y-maze [32 cm (long)×10 cm (wide) with 26-cm walls]. Tg-LHβ and LHRKO animals were tested as previously described (Joseph et al., 2003). Briefly, each animal (randomized and investigator-blinded) was placed in one of three arms of the Y-maze (alternating arms across animals in each group) and each arm entry was recorded for duration of 5 minutes. An alternation was defined as 3 entries in 3 different arms (i.e., 1, 2, 3 or 2, 3, 1 etc). % number of alternations was calculated as (total alternations/total number of entries−2)×100. The maze was cleaned with ethanol between each animal to minimize odor cues. […] In addition we added a SHAM ovariectomized group that received saline and a placebo pallet (n=10). During the last two weeks of the study all animals have been tested for Y-maze and Morris Water Maze performance.

[2] = test system: C57/B6 female mice; assay: Morris Water Maze in ovariectomized mice (leuprolide acetate, estrogen); type: in vivo; conditions: for OVX-associated cognitive decline, length of time taken to locate the invisible platform across days: OVX C57/B6 mice, Morris Water Maze, 3 months treatment
Source text: (Significance indicated by: *P+S vs E+S; #=P+S vs P+L; $=P+S vs SHAM; %=P+S vs E+L; at p<0.05).
For this pilot 2 month old C57/B6 female mice from Jackson Labs, were ovariectomized (n=40) them and either replaced them with 90-day time-release estrogen (n=20) or placebo pellets (Innovative research of America, F1) (n=18). […] In addition we added a SHAM ovariectomized group that received saline and a placebo pallet (n=10). During the last two weeks of the study all animals have been tested for Y-maze and Morris Water Maze performance.
As mentioned before, all mice also underwent MWM testing, a measurement of hippocampal function based on the capacity of the animal to find a hidden platform under water by remembering and using spatial cues in the environment.
(§1) Additionally, to further determine the memory function and training success in the animals we measured the capacity of the animals to retain the information learned using a probe trial. In this regard, at the end of the last day of training we removed the platform and let the animals swim for 1 minute.

[3] = test system: AD patients; conditions: high doses, phase II clinical trial; cited from earlier work
[4] = test system: Tg2576 mice; assay: Y-maze performance in aged Tg2576 mice; type: in vivo; conditions: aged (21 month old) Tg2576 female mice, 3 months, vs saline/placebo
Protocol: Figure illustrates the mean % alternations expressed as % change from baseline. To measure spontaneous alternation behavior and exploratory activity, a hippocampal-associated task, we used a Y-maze [32 cm (long)×10 cm (wide) with 26-cm walls]. Tg-LHβ and LHRKO animals were tested as previously described (Joseph et al., 2003). Briefly, each animal (randomized and investigator-blinded) was placed in one of three arms of the Y-maze (alternating arms across animals in each group) and each arm entry was recorded for duration of 5 minutes. An alternation was defined as 3 entries in 3 different arms (i.e., 1, 2, 3 or 2, 3, 1 etc). % number of alternations was calculated as (total alternations/total number of entries−2)×100. The maze was cleaned with ethanol between each animal to minimize odor cues. […] In this initial study we used aged animals to 1) circumvent the estrogen issue, since aged mice, like humans show estropause and 2) to examine the effects of LH ablation once the disease is well established.

[5] = test system: Aβ; conditions: APP transgenic mice, earlier study; cited from earlier work
[6] = test system: Tg2576 mice; conditions: APP transgenic mice, earlier study; cited from earlier work
[7] = test system: serum LH; assay: Serum LH after leuprolide acetate treatment in mice; type: in vivo; conditions: for serum LH: Tg2576 mice, vs saline
Source text: (§2) Inset: LHβ mRNA expression in mouse pituitary gland.

[8] = test system: LHβ mRNA; assay: LHβ mRNA expression in mouse pituitary gland; type: in vivo; conditions: saline versus 6 and 8 week leuprolide acetate treatment
Source text: as §2

[9] = test system: Aβ; assay: Aβ burden (% area stained) in hippocampus of Tg2576 mice; type: in vivo; conditions: vs saline-treated animals
Source text: Scale bar, 200 μm. […] In this initial study we used aged animals to 1) circumvent the estrogen issue, since aged mice, like humans show estropause and 2) to examine the effects of LH ablation once the disease is well established.

[10] = test system: C57/B6 female mice; assay: Morris Water Maze in ovariectomized mice (cetrorelix); type: in vivo
Source text: FIG. 13 are graphs illustrating Latency to enter NE quadrant and % Time spent in NE quadrant during the probe trial for animals treated with cetrorelix or saline and sham operated animals (SHAM).
FIG. 14 are plots illustrating the distance swam in NE quadrant during the trial for animals treated with cetrorelix or saline and sham operated animals.
We present preliminary data gathered from a pilot study and that focuses on the effects of cetrorelix on cognition in ovariectomized animals with or without estrogen replacement immediately after surgery. For this pilot 2 month old C57/B6 female mice were ovariectomized, as described above, and then treated with either 0.9% saline and the other half with cetrorelix. In addition we added a SHAM ovariectomized group that received saline and a placebo pallet (n=10). During the last two weeks of the study all animals have been tested for Morris Water Maze performance.
as §1

[11] = platform removed, 1 minute swim, regardless of replacement regiment

estrogen
Y-maze performance, estrogen-replaced vs placebo replaced ([1]; saline-treated, 90-day time-release estrogen vs placebo pellets, p=0.07): strong trend | OVX-associated cognitive decline, length of time taken to locate the invisible platform across days [2]: rescued

CCNC(=O)[C@@H]1CCCN1C(=O)[C@H](CCCNC(=N)N)NC(=O)[C@H](CC(C)C)NC(=O)[C@@H](CC(C)C)NC(=O)[C@H](Cc1ccc(O)cc1)NC(=O)[C@H](CO)NC(=O)[C@H](Cc1c[nH]c2ccccc12)NC(=O)[C@H](Cc1c[nH]cn1)NC(=O)[C@@H]1CCC(=O)N1 [leuprolide acetate]
cognitive impairment and activities of daily living [3]: stabilization in cognitive impairment and activities of daily living | Y-maze performance [1]: significantly improved Y-maze performance | Y-maze performance ([1]; listed as leuprolide): effective at improving OVX-dependent cognitive declines | Y-maze cognitive performance (% alternations, % change from baseline) [4]: significantly attenuates cognitive decline | amyloid-β load in the hippocampus [5]: decreases amyloid-β load | OVX-associated cognitive decline, length of time taken to locate the invisible platform across days [2]: as effective as estrogen in rescuing OVX-associated cognition decline | rate of learning in Morris Water Maze ([2]; independent of replacement regiment, vs saline): learned at a faster rate | distance swam in NE quadrant, probe trial [2, 11]: swam longer distances | latency to enter NE quadrant, probe trial [2, 11]: entered that quadrant earlier | latency to enter platform location, probe trial [2, 11]: crossed the invisible platform region more earlier | number of platform crossings, probe trial [2, 11]: crossed it more times | Y-maze performance [6]: improves Y-maze performance | serum LH [7]: significant decline in serum LH | serum LH ([7]; listed as Leuprolide acetate): significantly reduces serum LH | time course of serum LH ([7]; up to 8 weeks following treatment): classical LH modulation pattern by GnRH agonists | LHβ mRNA expression in the pituitary [8]: clear decrease in the expression of LHβ mRNA | Aβ burden / plaque load (% area stained in the entire hippocampus) [9]: significantly lower; also recorded: decreases Aβ plaque load

CC(=O)N[C@H](Cc1ccc2ccccc2c1)C(=O)N[C@H](Cc1ccc(Cl)cc1)C(=O)N[C@H](Cc1cccnc1)C(=O)N[C@@H](CO)C(=O)N[C@@H](Cc1ccc(O)cc1)C(=O)N[C@H](CCCNC(N)=O)C(=O)N[C@@H](CC(C)C)C(=O)N[C@@H](CCCNC(=N)N)C(=O)N1CCC[C@H]1C(=O)N[C@H](C)C(N)=O [cetrorelix] (Ac-[d2Nal][dPhe(4-Cl)][d3Pal]SY[dCit]LRP[dA]-NH2)
OVX-dependent cognitive declines, Morris Water Maze ([10]; OVX placebo-implanted mice, cetrorelix vs saline): effective at improving OVX-dependent cognitive declines | rate of learning in Morris Water Maze ([10]; independent of replacement regiment, cetrorelix vs saline): learned at a faster rate | distance swam in NE quadrant, probe trial ([10]; platform removed, 1 minute swim): swam longer distances
